We go through two compounds from patent US11583525B2, “Geranylgeranyltransferase I inhibitor for treatment of a PTEN defective cancer” (H. LEE MOFFITT CANCER CENTER AND RESEARCH INSTITUTE, INC., priority 2017, dated 2023).

Structures are written as SMILES. “Also recorded” adds a separate entry of the source. Peptide text beside a SMILES is read from it. * marks the point of attachment. Cbz = O=C(OCc1ccccc1)*

The subject of one experiment is A549 cells. Nature of the experiment: A549 cell xenografts in NOD/SCID gamma mice, GGTi-2418 alone or in combination with PDT. The experiment is classed as in vivo. The conditions noted are these: 50 mg kg-1 intratumoural injection. An excerpt:
FIGS. 4A, 4B, 4C, and 4D show both a non-degradable IP3R3 mutant and GGTi-2418 sensitize tumours to PDT. […] Implanted xenotransplanted mice, chosen randomly, were subjected to two rounds of PDT (see arrows) or left untreated (UT); n=4-6 mice per group. Left panel, tumour growth kinetics at the indicated time points. Middle panel, representative tumours imaged with IRDye 2-DG at the end of the experiment. Top right panel, representative excised tumours imaged 60 days post-injection. Bottom right panel, quantification of tumour weights. P values for the tumour volume and weight at day 60 were calculated by one-way ANOVA and multiple-comparisons test. Error bars indicate s.e.m. […] Middle panel, quantification of apoptosis. […] AFU, arbitrary fluorescence units. P values were calculated by one-way ANOVA and multiple-comparisons test. […] Bottom right panel, quantification of tumour weights. P values for the tumour volume and weight at day 60 were calculated by one-way ANOVA and multiple-comparisons test. […] Middle panel, quantification of apoptosis. […] P values were calculated by one-way ANOVA and multiple-comparisons test. […]
Experimental animals. […] Tumour growth was monitored daily, and tumour diameters were measured with callipers every other day. The tumour volume was calculated using the following equation: volume=π/6 ×(a×b2), where a is the major diameter and b is the minor diameter. […]

The next experiment deals with Ca2+ mobilization. Nature of the experiment: Cytosolic Ca2+ mobilization measured with aequorin in NHFs in response to ATP. The class given is cell-based, human. The conditions noted are these: NHFs re-stimulated with serum for one hour; ATP stimulation. As for the experimental part: FIGS. 7A, 7B, 7C, 7D, 7E, 7F, 7G, 7H, and 7I show FBXL2 controls Ca2+ mobilization and Ca2+-mediated apoptosis. […] Quantification of three independent experiments is shown and represented as percentage increase compared to EXP cells, which were set as 100%. P values were calculated by one-way ANOVA and multiple-comparisons test. Error bars indicate s.e.m. […] Quantifications and P value analyses was performed as in a. […] On the left, representative traces. On the right, quantification of three independent experiments. P values were calculated by a one-way ANOVA and multiple-comparisons test. Error bars indicate s.e.m. […] Concentrations of cytosolic (7d) and mitochondrial (7e) Ca2+ were measured with the appropriate aequorin in response to agonist stimulation (ATP). […] On the right, quantifications of three independent experiments. P values were calculated by one-way ANOVA and multiple-comparisons test. […] P values were calculated by unpaired t-test. […] Induction of cell death was evaluated after treatment with H2O2 using automated nuclei count analysis of twenty randomly chosen fields. P values were calculated by one-way ANOVA and multiple-comparisons test. […] Left, representative traces showing concentrations of mitochondrial Ca2+ measured with mitochondrial targeted aequorin. Right, quantification of three independent experiments. P values were calculated by one-way ANOVA and multiple-comparisons test. […]
(In general: A change in cytosolic calcium serves as a functional read-out for many receptors and channels.)

For `Cc1nc[nH]c1CN1CCN(C(=O)N[C@@H](CC(C)C)C(=O)O)[C@@H](Cc2ccccc2)C1=O` [GGTi-2418], in the experiment on A549 cells (GGTi-2418 by itself, two rounds of five consecutive days), the “growth rate of xenografts” value is on record as “only modestly affected the growth rate of xenografts”. Further, the “sensitization of tumour xenografts to PDT (tumour growth, weight, apoptosis)” value in the experiment with A549 cells (GGTi-2418 in combination with PDT) is reported as “sensitizes xenotransplanted tumours to photodynamic therapy; also recorded: significantly sensitized tumour xenografts to PDT”. In addition, the “serum-mediated decrease in Ca2+ mobilization” value in the experiment on Ca2+ mobilization was “inhibited the serum-mediated decrease in Ca2+ mobilization”.

Turning to `CC(C)C[C@@H](C=O)NC(=O)[C@H](CC(C)C)NC(=O)[C@H](CC(C)C)NC(=O)OCc1ccccc1` [MG132] (Cbz-Leu-Leu-Leu-aldehyde), the “serum-mediated decrease in Ca2+ mobilization” value in the experiment on Ca2+ mobilization is “inhibited the serum-mediated decrease in Ca2+ mobilization”.
